Reference: patent US10913738B2 (BRISTOL-MYERS SQUIBB COMPANY, priority 2017, dated 2021)
Read-outs that look alike come from different tables or passages of the source.

Assays:
[1] = test system: MLKL phosphorylation in HT29-L23 human colorectal adenocarcinoma cells; assay: MLKL Phosphorylation High-Content Assay; assay type: cell-based
Method in brief: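 IC50 and Ymax obtained by 4-parameter logistic fitting of MLKL phosphorylation, measured as mean circ-ring average intensity ratio from high-content images. Staining used an anti-phospho-S358 MLKL antibody overnight at 4° C., following six-hour cell incubation at 37° C.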

[2] = biological target: T1, His-GST-TVMV-hRIPK1(1-324) (Homo sapiens, UniProt Q13546); assay: RIPK1 HTRF Binding Assay
T1 construct: The coding region of human RIPK1(1-324) flanked by NdeI site at 5′ end; made in house; host or cells: Spodoptera frugiperda (Sf9) insect cells, baculovirus
T1 sequence (Q13546 1-324): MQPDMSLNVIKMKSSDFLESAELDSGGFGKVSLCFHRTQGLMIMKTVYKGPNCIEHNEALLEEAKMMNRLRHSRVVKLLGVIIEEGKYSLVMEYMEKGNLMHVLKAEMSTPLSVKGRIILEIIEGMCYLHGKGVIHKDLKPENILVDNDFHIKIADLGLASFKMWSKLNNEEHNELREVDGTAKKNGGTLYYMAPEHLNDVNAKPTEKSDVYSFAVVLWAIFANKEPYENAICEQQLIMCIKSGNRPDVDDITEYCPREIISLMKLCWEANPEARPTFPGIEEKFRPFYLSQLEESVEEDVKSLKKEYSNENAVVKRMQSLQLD

[3] = Homo sapiens, x marks IC50 class 20-200 nM, read-out: pMLKL cell activity 20-200 nM
[4] = x marks IC50 class <20 nM, read-out: RIPK1 HTRF binding <20 nM
[5] = x marks IC50 class 20-200 nM, read-out: RIPK1 HTRF binding 20-200 nM
[6] = Homo sapiens, x marks IC50 class >200 nM, read-out: pMLKL cell activity >200 nM
[7] = Homo sapiens, x marks IC50 class <20 nM, read-out: pMLKL cell activity <20 nM

Cc1ncc(C(=O)NCc2ccccc2OCC2CCCC2)cc1-c1ccn2nc(N)nc2c1 [Example 263, 5-{2-amino-[1,2,4]triazolo[1,5-a]pyridin-7-yl}-N-{[2-(cyclopentylmethoxy)phenyl]methyl}-6-methylpyridine-3-carboxamide]
IC50 [1, 3]: 20 to 200 nM | IC50 [2, 4]: < 20 nM

Cc1cnc(-c2ccn3nc(N)nc3c2)cc1C(=O)NCc1cc(C(F)(F)F)ccc1F [Example 398, 2-(2-amino-[1,2,4]triazolo[1,5-a]pyridin-7-yl)-N-(2-fluoro-5-(trifluoromethyl)benzyl)-5-methylisonicotinamide]
IC50 [1, 3]: 20 to 200 nM | IC50 [2, 5]: 20 to 200 nM

COc1ncc(-c2ccn3nc(N)nc3c2)cc1C(=O)N1CCOC(Cc2ccccc2)C1 (stereo not shown) [Example 428, (5-(2-amino-[1,2,4]triazolo[1,5-a]pyridin-7-yl)-2-methoxypyridin-3-yl)(2-benzylmorpholino)methanone]
IC50 [1, 6]: > 200 nM | IC50 [2, 5]: 20 to 200 nM

COc1ncc(-c2ccn3nc(N)nc3c2)cc1NC(=O)Cc1cc(OC(F)(F)F)ccc1F [Example 414, N-(5-(2-amino-[1,2,4]triazolo[1,5-a]pyridin-7-yl)-2-methoxypyridin-3-yl)-2-(2-fluoro-5-(trifluoromethoxy)phenyl)acetamide]
IC50 [1, 3]: 20 to 200 nM | IC50 [2, 4]: < 20 nM

Cc1ncc(-c2ccn3nc(N)nc3c2)cc1C(=O)NCc1ccccc1OCC1CCCC1 [Example 39, 5-{2-Amino-[1,2,4]triazolo[1,5-a]pyridin-7-yl}-N-{[2-(cyclopentylmethoxy)phenyl]methyl}-2-methylpyridine-3-carboxamide]
IC50 [1, 3]: 20 to 200 nM | IC50 [2, 4]: < 20 nM

Cc1ncc(-c2ccn3nc(N)nc3c2)cc1C(=O)NCc1cc(F)ccc1-c1ccn(C)n1 [Example 298, 5-(2-amino-[1,2,4]triazolo[1,5-a]pyridin-7-yl)-N-(5-fluoro-2-(1-methyl-1H-pyrazol-3-yl)benzyl)-2-methylnicotinamide]
IC50 [1, 6]: > 200 nM | IC50 [2, 5]: 20 to 200 nM

CCOc1ncc(-c2ccn3nc(N)nc3c2)cc1C(=O)NCc1ccccc1OCC1CC1 [Example 272, 5-{2-amino-[1,2,4]triazolo[1,5-a]pyridin-7-yl}-N-{[2-(cyclopropylmethoxy)phenyl]methyl}-2-ethoxypyridine-3-carboxamide]
IC50 [1, 3]: 20 to 200 nM | IC50 [2, 4]: < 20 nM

COc1cnc(-c2ccn3nc(N)nc3c2)cc1C(=O)NCc1cc(OC(F)(F)F)ccc1F [Example 388, 2-(2-amino-[1,2,4]triazolo[1,5-a]pyridin-7-yl)-N-(2-fluoro-5-(trifluoromethoxy)benzyl)-5-methoxyisonicotinamide]
IC50 [1, 3]: 20 to 200 nM | IC50 [2, 5]: 20 to 200 nM

Cc1nc(C)c(-c2ccn3nc(N)nc3c2)cc1C(=O)NCc1ncccc1OCC1CCCC1 [Example 182, 5-{2-amino-[1,2,4]triazolo[1,5-a]pyridin-7-yl}-N-{[3-(cyclopentylmethoxy)pyridin-2-yl]methyl}-2,6-dimethylpyridine-3-carboxamide]
IC50 [1, 3]: 20 to 200 nM | IC50 [2, 4]: < 20 nM

CC(C)Oc1ccccc1CNC(=O)c1cc(-c2ccn3nc(N)nc3c2)cnc1N [Example 55, 2-Amino-5-{2-amino-[1,2,4]triazolo[1,5-a]pyridin-7-yl}-N-{[2-(propan-2-yloxy)phenyl]methyl}pyridine-3-carboxamide]
IC50 [1, 3]: 20 to 200 nM | IC50 [2, 4]: < 20 nM

[2H]C([2H])(NC(=O)c1cc(-c2ccn3nc(N)nc3c2)cnc1OC)c1cc(C(F)(F)F)ccc1F [Example 349, 5-(2-amino-[1,2,4]triazolo[1,5-a]pyridin-7-yl)-N-((2-fluoro-5-(trifluoromethyl)phenyl)methyl-d2)-2-methoxynicotinamide]
IC50 [1, 3]: 20 to 200 nM | IC50 [2, 5]: 20 to 200 nM

COc1ncc(-c2ccn3nc(N)nc3c2)cc1C(=O)NCc1cc(F)cc(F)c1OC1CCCOC1 (stereo not shown) [Example 342, 5-(2-amino-[1,2,4]triazolo[1,5-a]pyridin-7-yl)-N-(3,5-difluoro-2-((tetrahydro-2H-pyran-3-yl)oxy)benzyl)-2-methoxynicotinamide]
IC50 [1, 3]: 20 to 200 nM | IC50 [2, 4]: < 20 nM

COc1nc(C)c(-c2ccn3nc(N)nc3c2)cc1C(=O)NCc1cccc(F)c1CN1CCCC1 [Example 326, 5-(2-Amino-[1,2,4]triazolo[1,5-a]pyridin-7-yl)-N-(3-fluoro-2-(pyrrolidin-1-ylmethyl)benzyl)-2-methoxy-6-methylnicotinamide]
IC50 [1, 6]: > 200 nM | IC50 [2, 5]: 20 to 200 nM

COc1ncc(-c2ccn3nc(N)nc3c2)cc1C(=O)NCc1ccccc1OC1CCOC1 (stereo not shown) [Example 140, 5-{2-amino-[1,2,4]triazolo[1,5-a]pyridin-7-yl}-2-methoxy-N-{[2-(oxolan-3-yloxy)phenyl]methyl}pyridine-3-carboxamide]
IC50 [1, 3]: 20 to 200 nM | IC50 [2, 4]: < 20 nM

[2H]C([2H])(NC(=O)c1cc(-c2ccn3nc(N)nc3c2)cnc1Cl)c1cc(OC(F)(F)F)ccc1F [Example 171, 5-{2-amino-[1,2,4]triazolo[1,5-a]pyridin-7-yl}-2-chloro-N-{[2-fluoro-5-(trifluoromethoxy)phenyl](deutero)methyl}pyridine-3-carboxamide]
IC50 [1, 3]: 20 to 200 nM | IC50 [2, 5]: 20 to 200 nM

COc1ncc(-c2ccn3nc(N)nc3c2)cc1C(=O)NCCC(O)c1ccc(F)cc1 (stereo not shown) [Example 78, 5-{2-Amino-[1,2,4]triazolo[1,5-a]pyridin-7-yl}-N-[3-(4-fluorophenyl)-3-hydroxypropyl]-2-methoxypyridine-3-carboxamide]
IC50 [1, 3]: 20 to 200 nM | IC50 [2, 5]: 20 to 200 nM

Cc1nc(C)c(-c2ccn3nc(N)nc3c2)cc1C(=O)NCc1c(F)cccc1OCC(F)(F)F [Example 291, 5-(2-amino-[1,2,4]triazolo[1,5-a]pyridin-7-yl)-N-(2-fluoro-6-(2,2,2-trifluoroethoxy)benzyl)-2,6-dimethylnicotinamide]
IC50 [1, 3]: 20 to 200 nM | IC50 [2, 5]: 20 to 200 nM

Cc1ncc(C(=O)NCc2cccnc2OCC2CCCC2)cc1-c1ccn2nc(N)nc2c1 [Example 258, 5-{2-amino-[1,2,4]triazolo[1,5-a]pyridin-7-yl}-N-{[2-(cyclopentylmethoxy)pyridin-3-yl]methyl}-6-methylpyridine-3-carboxamide]
IC50 [1, 6]: > 200 nM | IC50 [2, 4]: < 20 nM

[2H]C([2H])([2H])Oc1nc(C)c(-c2ccn3nc(N)nc3c2)cc1C(=O)NC(C)c1ccccc1OC(F)(F)F (single isomer, unassigned) [Example 98-1, 5-{2-amino-[1,2,4]triazolo[1,5-a]pyridin-7-yl}-2-(deutero)methoxy-6-methyl-N-{1-[2-(trifluoromethoxy)phenyl]ethyl}pyridine-3-carboxamide]
IC50 [1, 6]: > 200 nM | IC50 ([2]; x marks IC50 class >200 nM, read-out: RIPK1 HTRF binding >200 nM): > 200 nM

COc1nc(C)c(-c2ccn3nc(N)nc3c2)cc1C(=O)NCc1cc(F)cc(F)c1OC1CCOC(C)C1 (stereo not shown) [Example 352, 5-(2-amino-[1,2,4]triazolo[1,5-a]pyridin-7-yl)-N-(3,5-difluoro-2-((2-methyltetrahydro-2H-pyran-4-yl)oxy)benzyl)-2-methoxy-6-methylnicotinamide]
IC50 [1, 3]: 20 to 200 nM | IC50 [2, 4]: < 20 nM

COc1ncc(-c2ccn3nc(N)nc3c2)cc1C(=O)N1CCC[C@H](Cc2ccc(F)cc2)C1 [Example 134, 7-{5-[(3R)-3-[(4-fluorophenyl)methyl]piperidine-1-carbonyl]-6-methoxypyridin-3-yl}-[1,2,4]triazolo[1,5-a]pyridin-2-amine]
IC50 [1, 7]: < 20 nM | IC50 [2, 5]: 20 to 200 nM

COc1ncc(-c2ccn3nc(N)nc3c2)cc1C(=O)NCc1ccccc1-c1ccccc1 [Example 106, 5-{2-amino-[1,2,4]triazolo[1,5-a]pyridin-7-yl}-N-({[1,1′-biphenyl]-2-yl}methyl)-2-methoxypyridine-3-carboxamide]
IC50 [1, 7]: < 20 nM | IC50 [2, 4]: < 20 nM

COc1ncc(-c2ccn3nc(N)nc3c2)cc1C(=O)NCc1cc(F)cc(F)c1OC1CC1 [Example 344, 5-(2-amino-[1,2,4]triazolo[1,5-a]pyridin-7-yl)-N-(2-cyclopropoxy-3,5-difluorobenzyl)-2-methoxynicotinamide]
IC50 [1, 3]: 20 to 200 nM | IC50 [2, 4]: < 20 nM

5-(2-amino-[1,2,4]triazolo[1,5-a]pyridin-7-yl)-6-chloro-N-(2-flouro-5-(trifluoromethoxy)benzyl)nicotinamide [Example 373]
IC50 ([1]; x marks IC50 class >200 nM, read-out: pMLKL cell activity >200 nM): > 200 nM | IC50 [2, 4]: < 20 nM

Cc1ncc(C(=O)NCc2cc(F)cc(F)c2OCC2CCCC2)cc1-c1ccn2nc(N)nc2c1 [Example 259, 5-{2-amino-[1,2,4]triazolo[1,5-a]pyridin-7-yl}-N-{[2-(cylcopentylmethoxy)-3,5-difluorophenyl]methyl}-6-methylpyridine-3-carboxamide]
IC50 [1, 3]: 20 to 200 nM | IC50 [2, 4]: < 20 nM

[2H]C([2H])([2H])Oc1ncc(-c2ccn3nc(N)nc3c2)cc1C(=O)NCc1cc(OC(F)(F)F)ccc1F [Example 92, 5-{2-amino-[1,2,4]triazolo[1,5-a]pyridin-7-yl}-N-{[2-fluoro-5-(trifluoromethoxy)phenyl]methyl}-2-(deutero)methoxypyridine-3-carboxamide]
IC50 [1, 7]: < 20 nM | IC50 [2, 4]: < 20 nM
